Paper PMC10671074, “Tumor Regression upon Intratumoral and Subcutaneous Dosing of the STING Agonist ALG-031048 in Mouse Efficacy Models” (International Journal of Molecular Sciences, 2023)
Where two headings read alike, the source gives them in different places.

Legend:
[1] = Plasma stability, human; format: in vitro ADME; conditions: 37 °C, read-out: Plasma t½, Human
Procedure: The plasma stability assay was carried out on 96-well microtiter plates. The test compounds at 5 µM and the reference compound (propantheline) at 1 µM final concentration were incubated separately at 37 °C with mouse or human plasma for 0, 30, 60, and 240 min. At the end of each incubation time point, 300 μL of the quenching solution (50% acetonitrile, 50% methanol, and 0.05% formic acid) containing the internal standard was added to each well. The incubation plates were sealed, vortexed, and centrifuged at 4 °C for 15 min at 4000 rpm. The supernatant was transferred to fresh plates for LC/MS/MS analysis of the test compounds. The peak area ratios of each test compound over the internal standard were plotted against incubation time, and the t½ was calculated from the curve assuming first-order kinetics.

[2] = Liver microsomal stability, mouse; format: in vitro ADME; conditions: pH 7.4, 0.5 mg/mL mouse liver microsomes, 37 °C, read-out: Liver Microsome t½, Mouse
Procedure: (§1) The liver microsomal stability assay was carried out in 96-well microtiter plates. The test compounds at 5 µM and the reference compound (verapamil) at 1 µM final concentration were incubated separately at 37 °C with 0.5 mg/mL liver microsomes, with or without 1 mM NADPH in 100 mM potassium phosphate buffer, pH 7.4 with 3.3 mM MgCl2. […] At each of the time points (0, 15, 30, and 60 min), the enzymatic reaction was terminated with the addition of 150 μL of quenching solution (100% acetonitrile, 0.1% formic acid, and the internal standard), and subsequently the mixtures were vortexed vigorously for 20 min and centrifuged at 4000 rpm at 10 °C. The supernatants (80 µL) were transferred to a clean 96-well plate and analyzed via LC/MS/MS. The peak area ratios of each test compound over the internal standard were plotted against incubation time, and the t½ was calculated from the curve assuming first-order kinetics.

[3] = Liver microsomal stability, human; format: in vitro ADME; conditions: pH 7.4, 0.5 mg/mL human liver microsomes, 37 °C, read-out: Liver Microsome t½, Human
Procedure: as §1

[4] = tested on: primary human monocytes; assay: Activation of primary human monocytes (CD83/CD86 flow cytometry); format: cell-based; conditions: Monocyte, 24 h after stimulation
Text: Frozen human PBMCs (100 × 10^6 cells) were obtained from Stem Cell Technologies (Kent, WA, USA). Monocytes were purified from PBMCs using a CD14^+ pan-monocyte-negative isolation kit and an LS column (Miltenyi Biotec, Bergisch Gladbach, Germany). Magnetically labeled non-target cells were depleted by retaining them within a MACS column in the magnetic field of a MACS Separator, while highly purified unlabeled CD1 D16^− cells were collected and used to generate dendritic cells.
The cell suspension was then incubated with a predetermined optimal concentration of the appropriate fluorescent dye-labeled monoclonal antibodies (mAbs) against human cell surface markers on ice for 30 min. The fluorescent dye-labeled mAbs against human cell surface molecules included anti-CD209, anti-CD14, anti-CD11c, anti-CD40, anti-HLA-DR, anti-CD86, and anti-CD83 (BD Biosciences, Franklin Lakes, NJ, USA or BioLegend, San Diego, CA, USA). In addition, a fixable live/dead stain (Thermo Fisher Scientific) at a dilution of 1:1000 was added to exclude dead cells. After several washes with FACS buffer, cells were resuspended in FACS buffer and analyzed on an Attune Nxt flow cytometer (Thermo Fisher Scientific) with FlowJo v10 software (BD Biosciences). An aliquot of the cells to be analyzed served as controls by using “fluorescent minus-one” to establish gates and determine the frequency of positively stained cells. Ultra-comp beads (Thermo Fisher Scientific) were used as single-stained controls to set up compensation on the flow cytometer.

[5] = tested on: plasma cytokines; assay: Plasma cytokine levels in Hepa1–6 tumor-bearing mice; format: in vivo, mouse; conditions: Hepa1–6, 6 hours after the first dose
Procedure: Figure S6. A: Tumor regression in Hepa1‐6 tumor‐bearing […] mice upon IT treatment with three doses of 25 μg (light blue) or 100 μ g ALG‐031048 (dark blue), in comparison to treatment with 10 mg/kg anti‐PD‐1 antibody twice per week, 6 doses total (red). Vehicle‐treated animals are shown in black; shown are the mean tumor volumes ± standard deviation for each group of 10 animals.
Irregular, crater‐shaped tumors prevented accurate tumor volume measurement between Days 8‐
25. Treatment started when tumors reached an average volume of 98 mm3. Statistical analysis pro‐ vided in Table S4. B: Tumor weight for each group at the end of the study. Statistical analysis pro‐ vided in Table S5. C: Plasma cytokine levels 6 hours after the first dose. Each symbol represents one animal as well as the mean of the group (n=10). Unpaired t‐test was used to compare different groups: all groups for al l cytokines were statistically significant from each other with P‐values of < 0.0001 with the following exceptions: vehicle vs anti‐PD‐1 were non‐significant (all cytokines); the […]

[6] = tested on: CT26 tumors; assay: Re-challenge with CT26 of mice with complete tumor regression; format: in vivo, mouse
Procedure: Ten naïve, age-matched female BALB/c mice were used as controls. […] Tumor growth was measured as described above.

[7] = target: STING R232 (Homo sapiens, UniProt Q86WV6, H232R); assay: HEK 293 STING R232 IFN-β reporter assay; format: cell-based; parameters: host or cells: 293T-Dual hSTING-R232 (HEK 293T derived); conditions: HEK 293 STING R232 cells, digitonin dosing buffer 30 min, 20 h; mean±standard deviation; read-out: Reporter Cell Assay EC50, STING R232 IFN-β
Procedure: Assays were set up after allowing cells to adhere for 48 h. Compounds dissolved in water were serially diluted in dosing buffer containing 10 µg/mL of digitonin (MP Biomedicals, Solon, OH, USA). Media were aspirated from the cells, and 50 µL of buffer with compound was added in triplicate. […] An aliquot of 100 µL of CellTiter-Glo® (Promega, Madison, WI, USA) was added to the original plate still containing the cells, and luminescence was determined to measure viability. All readouts were measured on an Envision plate reader from Perkin Elmer. Data were analyzed using GraphPad™ Prism’s version 8.0 [Agonist] vs. response—variable slope (four parameters) model.

[8] = tested on: HEK 293 reporter cells; assay: Cell viability of HEK 293 reporter cells (CellTiter-Glo); conditions: concentrations up to 1000 nM
Procedure: Assays were set up after allowing cells to adhere for 48 h. Compounds dissolved in water were serially diluted in dosing buffer containing 10 µg/mL of digitonin (MP Biomedicals, Solon, OH, USA). Media were aspirated from the cells, and 50 µL of buffer with compound was added in triplicate. […] The next day, 20 µL of media was transferred to two new plates, and either 50 µL of QuantiLuc™ (Invivogen) to measure IFN-β expression or 80 µL of QuantiBlue™ (Invivogen) to measure IRF activity were added. […] An aliquot of 100 µL of CellTiter-Glo® (Promega, Madison, WI, USA) was added to the original plate still containing the cells, and luminescence was determined to measure viability. All readouts were measured on an Envision plate reader from Perkin Elmer. Data were analyzed using GraphPad™ Prism’s version 8.0 [Agonist] vs. response—variable slope (four parameters) model.
with increasing concentrations of the STING agonists or IFN‐β. After 24 hours, IRF reporter activity

Sequence of STING R232 (Q86WV6 whole entry H232R): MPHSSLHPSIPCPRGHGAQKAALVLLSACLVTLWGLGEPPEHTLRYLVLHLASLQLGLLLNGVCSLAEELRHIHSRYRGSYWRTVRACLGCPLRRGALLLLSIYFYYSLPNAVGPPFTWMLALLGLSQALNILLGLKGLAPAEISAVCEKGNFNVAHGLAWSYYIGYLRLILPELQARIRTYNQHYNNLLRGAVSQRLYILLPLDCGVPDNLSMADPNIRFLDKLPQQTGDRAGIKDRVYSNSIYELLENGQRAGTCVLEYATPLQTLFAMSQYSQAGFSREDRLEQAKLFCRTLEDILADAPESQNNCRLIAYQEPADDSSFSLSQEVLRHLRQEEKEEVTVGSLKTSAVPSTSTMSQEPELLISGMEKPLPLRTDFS

CO[C@H]1[C@H]2OP(=O)(O)OC[C@@]34C[C@@H]3[C@@H](n3cnc5c(N)ncnc53)[C@H](O)[C@@H]4O[P@](=O)(S)OC[C@H]1O[C@H]2n1cnc2c(=O)[nH]c(N)nc21 [ALG-031048]
half-life at 5 µM [1]: > 1 h
half-life at 5 µM [2]: > 8 h
half-life at 5 µM [3]: > 8 h
EC50 ([4]; read-out: EC50 CD83, Monocytes): 8.1 µM
EC50 ([4]; read-out: EC50 CD86, Monocytes): 1.12 µM
Plasma cytokines after IT administration [5]: increased plasma cytokines IFN-β1, IFN-γ, IL-6, MCP-1, MIP-1α, and TNF-α
Animals with complete tumor suppression (TV < 10 mm^3) after CT26 re-challenge ([6]; Figure 5C, previously 100 μg IT × 3, CT26 left flank, 25 days, no further treatment): six
TV at last measurement of animals with delayed tumor growth after CT26 re-challenge ([6]; Figure 5C, three animals): 40–221 mm^3
TV at end of study of remaining re-challenged animal ([6]; complete responders to 100 μg IT 3 × q3d, CT26 re-challenge): 864 mm^3
Animals with tumor growth suppressed after CT26 re-challenge ([6]; complete responders to 100 μg IT 3 × q3d, re-challenged on opposite flank, 40 days without additional treatment): 8 of 9
EC50 [7]: 0.132 µM
Cell viability of HEK 293 reporter cells [8]: did not cause any loss of cell viability
